From PubChem BioAssay AID248 (DTP/NCI, 2004)
Where “and” joins values, the source holds several entries; their conditions need not be identical. Identical values can stand only once. Inconclusive results and toxic doses are left out. No stated cut-off is given here; in the data, active means T/C of 150% or more; inactive means T/C below 125%.

Tested on: L1210 leukemia ip in BDF1 mice, survival T/C
Assay: NCI In Vivo Anticancer Drug Screen. Data for tumor model L1210 Leukemia (intraperitoneal) in B6D2F1 (BDF1) mice
Settings: endpoint: mean survival time, higher = longer survival
Method in brief: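 Each compound was tested against a transplantable tumor grown in mice. The endpoint was survival, with treated animals benchmarked against vehicle controls as a simple ratio.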

[1] = dose: 100.0 mg/kg/injection, schedule: Q01DX001 (ip), vehicle: saline
[2] = dose: 100.0 mg/kg/injection, schedule: Q04DX003 (ip), vehicle: Klucel (hydroxypropylcellulose) (HPC)
[3] = dose: 200.0 mg/kg/injection, schedule: Q04DX003 (ip), vehicle: Klucel (hydroxypropylcellulose) (HPC)
[4] = dose: 100.0 mg/kg/injection, schedule: Q01DX009 (ip), vehicle: saline with Tween-80
[5] = dose: 200.0 mg/kg/injection, schedule: Q01DX009 (ip), vehicle: saline with Tween-80
[6] = dose: 400.0 mg/kg/injection, schedule: Q01DX009 (ip), vehicle: saline with Tween-80
[7] = dose: 100.0 mg/kg/injection, schedule: Q04DX002 (ip), vehicle: Klucel (hydroxypropylcellulose) (HPC)
[8] = dose: 200.0 mg/kg/injection, schedule: Q04DX002 (ip), vehicle: Klucel (hydroxypropylcellulose) (HPC)
[9] = dose: 400.0 mg/kg/injection, schedule: Q04DX002 (ip), vehicle: Klucel (hydroxypropylcellulose) (HPC)
[10] = dose: 100.0 mg/kg/injection, schedule: Q04DX003 (ip), vehicle: saline with Tween-80
[11] = dose: 400.0 mg/kg/injection, schedule: Q04DX003 (ip), vehicle: Klucel (hydroxypropylcellulose) (HPC)
[12] = dose: 50.0 mg/kg/injection, schedule: Q01DX001 (ip), vehicle: carboxymethylcellulose (CMC)
[13] = dose: 100.0 mg/kg/injection, schedule: Q01DX001 (ip), vehicle: carboxymethylcellulose (CMC)
[14] = dose: 200.0 mg/kg/injection, schedule: Q01DX001 (ip), vehicle: carboxymethylcellulose (CMC)
[15] = dose: 400.0 mg/kg/injection, schedule: Q01DX001 (ip), vehicle: carboxymethylcellulose (CMC)
[16] = dose: 100.0 mg/kg/injection, schedule: Q01DX009 (ip), vehicle: Klucel (hydroxypropylcellulose) (HPC)
[17] = dose: 200.0 mg/kg/injection, schedule: Q01DX009 (ip), vehicle: Klucel (hydroxypropylcellulose) (HPC)
[18] = dose: 200.0 mg/kg/injection, schedule: Q01DX001 (ip), vehicle: saline
[19] = dose: 200.0 mg/kg/injection, schedule: Q04DX003 (ip), vehicle: saline with Tween-80
[20] = dose: 400.0 mg/kg/injection, schedule: Q04DX003 (ip), vehicle: saline with Tween-80

Measured: T/C

COc1cccc2c1[nH]c1cc3ccncc3cc12
inactive: dose: 25.0 mg/kg/injection, schedule: Q01DX001 (ip), vehicle: saline 107 % of control | dose: 50.0 mg/kg/injection, schedule: Q01DX001 (ip), vehicle: saline 112 % of control | [1] 98 % of control and 102 % of control | [2] 95 % of control | [3] 95 % of control

CCOC(=O)c1cnc(SC)nc1Oc1ccccc1
inactive: [4] 101 % of control | [5] 106 % of control | [6] 98 % of control

CC(=O)N(NC(=O)c1cccnc1)C(C)=O
inactive: dose: 3.75 mg/kg/injection, schedule: Q01DX015 (oral), vehicle: carboxymethylcellulose (CMC) 101 % of control | dose: 7.5 mg/kg/injection, schedule: Q01DX015 (oral), vehicle: carboxymethylcellulose (CMC) 100 % of control | dose: 15.0 mg/kg/injection, schedule: Q01DX015 (oral), vehicle: carboxymethylcellulose (CMC) 100 % of control | dose: 30.0 mg/kg/injection, schedule: Q01DX015 (oral), vehicle: carboxymethylcellulose (CMC) 106 % of control | dose: 62.0 mg/kg/injection, schedule: Q01DX Z (oral), vehicle: carboxymethylcellulose (CMC) 91 % of control | dose: 125.0 mg/kg/injection, schedule: Q01DX Z (oral), vehicle: carboxymethylcellulose (CMC) 91 % of control | dose: 250.0 mg/kg/injection, schedule: Q01DX Z (oral), vehicle: carboxymethylcellulose (CMC) 95 % of control

O=C(CCN1C(=O)CCC1=O)NCCc1ccccc1
inactive: [4] 97 % of control | [5] 98 % of control | [6] 101 % of control

CCC(C)(CC)OC(=O)c1ccc([N+](=O)[O-])cc1
inactive: [7] 113 % of control | [8] 106 % of control | [9] 97 % of control

CS(=O)(=O)N(CC(=O)O)Cc1ccc(Cl)cc1
inactive: dose: 100.0 mg/kg/injection, schedule: Q04DX003 (ip), vehicle: other 102 % of control | dose: 200.0 mg/kg/injection, schedule: Q04DX003 (ip), vehicle: other 105 % of control | dose: 400.0 mg/kg/injection, schedule: Q04DX003 (ip), vehicle: other 98 % of control

Cc1ccc(S(=O)(=O)N/N=C2/CC3CCCCCCC23)cc1 (stereo not given)
inactive: dose: 50.0 mg/kg/injection, schedule: Q04DX002 (ip), vehicle: Klucel (hydroxypropylcellulose) (HPC) 104 % of control | [7] 97 % of control | [8] 111 % of control

CNC(=O)Oc1c([N+](=O)[O-])c([N+](=O)[O-])cc2ccccc12
inactive: dose: 75.0 mg/kg/injection, schedule: Q01DX001 (ip), vehicle: other 100 % of control

CC(C)C(CN)(CCCN1CCCC1)c1cccc2ccccc12 (stereo not given)
inactive: [10] 102 % of control

O=C(O)CNC(=O)c1cccc([N+](=O)[O-])c1
inactive: [2] 99 % of control | [3] 101 % of control | [11] 94 % of control

Cc1c([N+](=O)[O-])cc(CCn2cnc3c(=O)[nH]cnc32)cc1[N+](=O)[O-]
inactive: [12] 98 % of control | [13] 98 % of control | [14] 95 % of control | [15] 104 % of control

CCCCCCCCO/N=C\c1c2c(O)c3c(O)c(C)c4c(c3c1O)C(=O)C(C)(O/C=C\C(OC)C(C)C(OC(C)=O)C(C)C(O)C(C)C(O)C(C)/C=C\C=C(\C)C(=O)N2)O4 (stereo not given)
inactive: dose: 50.0 mg/kg/injection, schedule: Q04DX003 (ip), vehicle: water 96 % of control | [16] 106 % of control | dose: 100.0 mg/kg/injection, schedule: Q04DX003 (ip), vehicle: water 100 % of control | [17] 89 % of control | dose: 200.0 mg/kg/injection, schedule: Q04DX003 (ip), vehicle: water 98 % of control | dose: 400.0 mg/kg/injection, schedule: Q04DX003 (ip), vehicle: water 104 % of control

Nc1cccnc1NCC(O)c1ccccc1 (stereo not given)
inactive: [1] 103 % of control | [18] 97 % of control

O=[N+]([O-])c1cc(Br)ccc1O
inactive: dose: 100.0 mg/kg/injection, schedule: Q04DX003 (ip), vehicle: saline 100 % of control | dose: 200.0 mg/kg/injection, schedule: Q04DX003 (ip), vehicle: saline 89 % of control

BrCC1COc2ccccc2O1 (stereo not given)
inactive: [13] 100 % of control | [14] 100 % of control | [15] 91 % of control

COC(=O)C1OC(n2cnc3c(=S)nc[nH]c32)C(OC(C)=O)C(OC(C)=O)C1OC(C)=O (stereo not given)
inactive: [12] 103 % of control | [13] 100 % of control | [14] 100 % of control | [15] 94 % of control

O=S(=O)(O)CCCN1CCCCC1
inactive: dose: 100.0 mg/kg/injection, schedule: Q01DX009 (ip), vehicle: saline 107 % of control | dose: 200.0 mg/kg/injection, schedule: Q01DX009 (ip), vehicle: saline 112 % of control | dose: 400.0 mg/kg/injection, schedule: Q01DX009 (ip), vehicle: saline 98 % of control

COCCCNCC(=O)N1CCN(C(=O)CNCCCOC)CC1
inactive: [12] 92 % of control | [13] 92 % of control | [14] 92 % of control | [15] 95 % of control

CCCCCCCN(CCCCCCC)CC(O)c1c2ccccc2cc2c1ccc1ccccc12 (stereo not given)
inactive: [16] 91 % of control | [2] 101 % of control | [17] 104 % of control | [3] 93 % of control | [11] 93 % of control

O=[N+]([O-])c1cccc(C=Nc2ccc(CCO)cc2)c1
inactive: [7] 104 % of control | [8] 121 % of control | [9] 107 % of control

CCCCCCCCCCCCCCCC(=O)N(c1ccc(N)cc1)C(C)CCCN(CC)CC (stereo not given)
inactive: [4] 100 % of control | [10] 98 % of control | [5] 100 % of control | [19] 97 % of control | [6] 100 % of control | [20] 90 % of control

CSc1nc(N)c(N=Nc2ccc(S(=O)(=O)Nc3nccc(C)n3)cc2)c(=O)[nH]1
inactive: [13] 86 % of control | [14] 97 % of control | [15] 97 % of control

CCCCCCCCCCCCCCCCCCNC(=O)Nc1ccccc1[N+](=O)[O-]
inactive: dose: 50.0 mg/kg/injection, schedule: Q01DX009 (ip), vehicle: DMSO 98 % of control | dose: 100.0 mg/kg/injection, schedule: Q01DX009 (ip), vehicle: DMSO 88 % of control | dose: 100.0 mg/kg/injection, schedule: Q04DX003 (ip), vehicle: DMSO 94 % of control | dose: 200.0 mg/kg/injection, schedule: Q04DX003 (ip), vehicle: DMSO 89 % of control

c1csc(CNCCN2CC2)c1
inactive: dose: 2.5 mg/kg/injection, schedule: Q01DX009 (ip), vehicle: saline 89 % of control | dose: 2.5 mg/kg/injection, schedule: Q04DX003 (ip), vehicle: saline 95 % of control | dose: 5.0 mg/kg/injection, schedule: Q04DX003 (ip), vehicle: saline 103 % of control | dose: 10.0 mg/kg/injection, schedule: Q04DX003 (ip), vehicle: saline 100 % of control

O=C(CCl)N(O)c1ccc(/C=C/c2ccccc2)cc1
inactive: [13] 90 % of control | [14] 88 % of control | [15] 95 % of control

Cc1ccc(Cl)cc1NS(=O)(=O)c1ccc(Br)cc1
inactive: [4] 95 % of control | [10] 88 % of control | [5] 90 % of control | [19] 94 % of control | [6] 90 % of control | [20] 94 % of control

N/N=C\C(=N/N)C(O)C(O)C(O)CO (stereo not given)
inactive: dose: 25.0 mg/kg/injection, schedule: Q01DX001 (ip), vehicle: saline with Tween-80 93 % of control | dose: 50.0 mg/kg/injection, schedule: Q01DX001 (ip), vehicle: saline with Tween-80 90 % of control | dose: 100.0 mg/kg/injection, schedule: Q01DX001 (ip), vehicle: saline with Tween-80 87 % of control

CCOC(=O)C1CCCCN1 (stereo not given)
inactive: dose: 75.0 mg/kg/injection, schedule: Q01DX001 (ip), vehicle: saline 91 % of control | dose: 150.0 mg/kg/injection, schedule: Q01DX001 (ip), vehicle: saline 91 % of control

CC1OC(n2ccc(NC(=O)c3ccc(NC(=O)C(C)(N)CO)cc3)nc2=O)CCC1OC1OC(C)C(N(C)C)C(O)C1O (stereo not given)
inactive: [13] 106 % of control | [14] 100 % of control | [15] 106 % of control

NCCP(=O)(O)c1ccccc1
inactive: [1] 94 % of control | [18] 93 % of control | dose: 400.0 mg/kg/injection, schedule: Q01DX001 (ip), vehicle: saline 93 % of control
